Experimental data reported in patent US12064443B2 (priority 2021, dated 2024).

How the values were obtained:
[1] = cited from earlier work
[2] = test system: Cholera toxin (CTx) challenge; settings: mouse, in vivo

Compound | Solubility in water [1] | Effect on volume of intestinal secretion upon CTx challenge [2]
Sucralfate | poorly soluble | neither polyphenol nor sucralfate reduced the volume of intestinal secretion
O=S(=O)([O-])OC[C@H]1O[C@@](COS(=O)(=O)[O-])(O[C@H]2O[C@H](COS(=O)(=O)[O-])[C@@H](OS(=O)(=O)[O-])[C@H](OS(=O)(=O)[O-])[C@H]2OS(=O)(=O)[O-])[C@@H](OS(=O)(=O)[O-])[C@@H]1OS(=O)(=O)[O-].[K+].[K+].[K+].[K+].[K+].[K+].[K+].[K+] [Sucrose octasulfate-potassium salt] | freely soluble | –
